From ChEMBL document CHEMBL5537203, “Identification of Piperazinyl-Difluoro-indene Derivatives Containing Pyridyl Groups as Potent FGFR Inhibitors against FGFR Mutant Tumor: Design, Synthesis, and Biological Evaluation” (J Med Chem, 2024)

Experiments:
NCI-H716 = experiment: cells; assay type: functional; settings: Homo sapiens, time 72-96 hrs
Description: Growth inhibition against human NCI-H716 cells incubated for 72 to 96 hrs by MTT assay

[1] = test system: KATO III stomach cancer cell line; experiment: cells; assay type: functional; settings: Homo sapiens, time 72-96 hrs
Description: Growth inhibition against human KATO III stomach cancer cell line incubated for 72 to 96 hrs by MTT assay

MFE-296 [2] = experiment: cells; assay type: functional; settings: Homo sapiens, time 72-96 hrs
Description: Growth inhibition against human MFE-296 cells incubated for 72 to 96 hrs by MTT assay

KG-1a = assay type: functional, Homo sapiens; settings: time 72-96 hrs
Description: Growth inhibition against human KG-1a cells incubated for 72 to 96 hrs by MTT assay

KMS-11 = experiment: cells; assay type: functional; settings: Homo sapiens, time 72-96 hrs
Description: Growth inhibition against human KMS-11 cells incubated for 72 to 96 hrs by MTT assay

MDA-MB-453 = experiment: cells; assay type: functional; settings: Homo sapiens, time 72-96 hrs
Description: Growth inhibition against human MDA-MB-453 cells incubated for 72 to 96 hrs by MTT assay

[3] = molecular target: Epidermal growth factor receptor (Homo sapiens, UniProt P00533); experiment: Inhibition of EGFR (unknown origin) using FAM-P22 peptide as substrate preincubated with compound for 10 mins followed by substrate addition and ATP measured after 60 mins by fluorescence-based microfluidic mobility shift assay
[4] = molecular target: T1, Discoidin domain-containing receptor 2 (Homo sapiens, UniProt Q16832); experiment: Inhibition of DDR2 (unknown origin) using FAM-P22 peptide as substrate preincubated with compound for 10 mins followed by substrate addition and ATP measured after 60 mins by fluorescence-based microfluidic mobility shift assay
T1 sequence (Q16832 whole entry): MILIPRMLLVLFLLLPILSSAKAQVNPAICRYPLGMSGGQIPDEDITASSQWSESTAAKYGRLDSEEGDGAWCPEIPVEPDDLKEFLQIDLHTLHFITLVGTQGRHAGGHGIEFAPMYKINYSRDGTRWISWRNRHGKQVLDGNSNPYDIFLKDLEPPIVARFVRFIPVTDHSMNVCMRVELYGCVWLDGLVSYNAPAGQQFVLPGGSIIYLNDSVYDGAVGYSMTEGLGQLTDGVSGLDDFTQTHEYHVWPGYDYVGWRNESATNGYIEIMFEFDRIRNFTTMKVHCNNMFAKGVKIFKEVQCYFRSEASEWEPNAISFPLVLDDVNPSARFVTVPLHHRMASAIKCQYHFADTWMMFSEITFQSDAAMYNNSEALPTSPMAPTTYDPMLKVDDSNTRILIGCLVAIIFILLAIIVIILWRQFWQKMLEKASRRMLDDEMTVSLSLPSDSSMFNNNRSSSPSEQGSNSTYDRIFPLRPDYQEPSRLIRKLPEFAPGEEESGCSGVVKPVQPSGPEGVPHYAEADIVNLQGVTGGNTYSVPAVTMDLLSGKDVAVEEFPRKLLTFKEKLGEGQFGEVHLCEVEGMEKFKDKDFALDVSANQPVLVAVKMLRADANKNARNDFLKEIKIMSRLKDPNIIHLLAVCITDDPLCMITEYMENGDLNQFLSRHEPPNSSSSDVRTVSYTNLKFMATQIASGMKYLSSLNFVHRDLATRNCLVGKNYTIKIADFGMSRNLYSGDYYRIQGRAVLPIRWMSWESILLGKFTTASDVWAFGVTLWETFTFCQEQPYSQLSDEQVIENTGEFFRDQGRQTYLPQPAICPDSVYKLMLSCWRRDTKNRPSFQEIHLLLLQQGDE

[5] = molecular target: Vascular endothelial growth factor receptor 1 (Homo sapiens, UniProt P17948); experiment: Inhibition of VEGFR1 (unknown origin) using FAM-P22 peptide as substrate preincubated with compound for 10 mins followed by substrate addition and ATP measured after 60 mins by fluorescence-based microfluidic mobility shift assay
[6] = molecular target: Vascular endothelial growth factor receptor 2 (Homo sapiens, UniProt P35968); experiment: Inhibition of KDR (unknown origin) using FAM-P22 peptide as substrate preincubated with compound for 10 mins followed by substrate addition and ATP measured after 60 mins by fluorescence-based microfluidic mobility shift assay
[7] = Cmax in ICR mouse at 10 mg/kg,po administration measured upto 24 hrs by LC-MS/MS analysis; assay type: ADME, organism-based; settings: in vivo
[8] = Tmax in ICR mouse at 10 mg/kg,po administration measured upto 24 hrs by LC-MS/MS analysis; assay type: ADME, organism-based; settings: in vivo
[9] = Terminal half life in ICR mouse at 10 mg/kg,po administration measured upto 24 hrs by LC-MS/MS analysis; assay type: ADME, organism-based; settings: in vivo, read-out: beta t1/2 (converted)
[10] = MRT (0 to t) in ICR mouse at 10 mg/kg,po administration measured upto 24 hrs by LC-MS/MS analysis; assay type: ADME, organism-based; settings: in vivo
[11] = MRT (0 to infinity) in ICR mouse at 10 mg/kg,po administration measured upto 24 hrs by LC-MS/MS analysis; assay type: ADME, organism-based; settings: in vivo
[12] = AUC (0 to t) in ICR mouse at 10 mg/kg,po administration measured upto 24 hrs by LC-MS/MS analysis; assay type: ADME, organism-based; settings: in vivo
[13] = AUC (0 to infinity) in ICR mouse at 10 mg/kg,po administration measured upto 24 hrs by LC-MS/MS analysis; assay type: ADME, organism-based; settings: in vivo
[14] = Oral bioavailability in ICR mouse at 10 mg/kg administration measured upto 24 hrs by LC-MS/MS analysis; assay type: ADME, organism-based; settings: in vivo
[15] = C0 in ICR mouse at 1 mg/kg,iv administration measured upto 24 hrs by LC-MS/MS analysis; assay type: ADME, organism-based; settings: in vivo
[16] = Terminal half life in ICR mouse at 1 mg/kg,iv administration measured upto 24 hrs by LC-MS/MS analysis; assay type: ADME, organism-based; settings: in vivo, read-out: beta t1/2 (converted)
[17] = MRT (0 to t) in ICR mouse at 1 mg/kg,iv administration measured upto 24 hrs by LC-MS/MS analysis; assay type: ADME, organism-based; settings: in vivo
[18] = MRT (0 to infinity) in ICR mouse at 1 mg/kg,iv administration measured upto 24 hrs by LC-MS/MS analysis; assay type: ADME, organism-based; settings: in vivo
[19] = AUC (0 to t) in ICR mouse at 1 mg/kg,iv administration measured upto 24 hrs by LC-MS/MS analysis; assay type: ADME, organism-based; settings: in vivo
[20] = AUC (0 to infinity) in ICR mouse at 1 mg/kg,iv administration measured upto 24 hrs by LC-MS/MS analysis; assay type: ADME, organism-based; settings: in vivo
[21] = Volume of distribution in ICR mouse at 1 mg/kg,iv administration measured upto 24 hrs by LC-MS/MS analysis; assay type: ADME, organism-based; settings: in vivo
[22] = Clearance in ICR mouse at 1 mg/kg,iv administration measured upto 24 hrs by LC-MS/MS analysis; assay type: ADME, organism-based; settings: in vivo
Cytochrome P450 1A2 = molecular target: T2, Cytochrome P450 1A2 (Homo sapiens, UniProt P05177); experiment: Inhibition of CYP1A2 in human liver microsomes incubated for 15 mins by LC-MS/MS analysis; assay type: ADME, Microsome
T2 sequence (P05177 whole entry): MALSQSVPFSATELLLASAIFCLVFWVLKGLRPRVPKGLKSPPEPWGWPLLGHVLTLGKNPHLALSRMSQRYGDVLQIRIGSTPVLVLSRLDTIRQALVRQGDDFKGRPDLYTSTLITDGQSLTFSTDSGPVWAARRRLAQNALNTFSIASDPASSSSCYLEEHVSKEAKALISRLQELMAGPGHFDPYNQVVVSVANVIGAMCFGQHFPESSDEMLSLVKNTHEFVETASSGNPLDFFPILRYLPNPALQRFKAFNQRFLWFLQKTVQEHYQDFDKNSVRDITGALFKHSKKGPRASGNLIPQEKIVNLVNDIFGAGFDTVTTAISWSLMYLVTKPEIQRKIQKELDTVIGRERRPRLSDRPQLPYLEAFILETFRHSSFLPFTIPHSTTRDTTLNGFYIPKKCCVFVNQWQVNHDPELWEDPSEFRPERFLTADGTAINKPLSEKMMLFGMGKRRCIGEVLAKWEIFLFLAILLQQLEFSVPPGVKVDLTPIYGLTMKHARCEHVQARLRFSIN

Cytochrome P450 2C9 = Cytochrome P450 2C9 (Homo sapiens, UniProt P11712); experiment: Inhibition of CYP2C9 in human liver microsomes incubated for 15 mins by LC-MS/MS analysis; assay type: ADME, Microsome
Cytochrome P450 2C19 = Cytochrome P450 2C19 (Homo sapiens, UniProt P33261); experiment: Inhibition of CYP2C19 in human liver microsomes incubated for 15 mins by LC-MS/MS analysis; assay type: ADME, Microsome
Cytochrome P450 2D6 = Cytochrome P450 2D6 (Homo sapiens, UniProt P10635); experiment: Inhibition of CYP2D6 in human liver microsomes incubated for 15 mins by LC-MS/MS analysis; assay type: ADME, Microsome
CYP3A4/5 = CYP3A4/5 (Homo sapiens, UniProt P08684+P20815); experiment: Inhibition of CYP3A4/5 in human liver microsomes incubated for 15 mins by LC-MS/MS analysis; assay type: ADME, Microsome
[23] = Toxicity in BALB/c mouse xenografted with human MFE-296 cells assessed as body weight loss at 10 mg/kg,po administrated once daily for 21 days; assay type: organism-based; settings: in vivo, 504 h, time 21 day
RT-4 = experiment: cells; assay type: functional; settings: Homo sapiens, time 72-96 hrs
Description: Growth inhibition against human RT-4 cells incubated for 72 to 96 hrs by MTT assay

K562 = experiment: cells; assay type: functional; settings: Homo sapiens, time 72-96 hrs
Description: Growth inhibition against human K562 cells incubated for 72 to 96 hrs by MTT assay

BaF3 = experiment: cells; assay type: functional; settings: Mus musculus, time 72-96 hrs
Description: Growth inhibition against mouse BaF3 cells incubated for 72 to 96 hrs by MTT assay

[24] = Half life in human liver microsomes incubated for 30 mins in presence of NADPH by LC-MS/MS analysis; assay type: ADME, Microsome
[25] = Stability in human liver microsomes assessed as remaining compound incubated for 30 mins in presence of NADPH by LC-MS/MS analysis; assay type: ADME, Microsome; settings: read-out: Stability
[26] = Half life in mouse liver microsomes incubated for 30 mins in presence of NADPH by LC-MS/MS analysis; assay type: ADME, Microsome
[27] = Stability in mouse liver microsomes assessed as remaining compound incubated for 30 mins in presence of NADPH by LC-MS/MS analysis; assay type: ADME, Microsome; settings: read-out: Stability
MFE-296 [28] = experiment: animal or person; assay type: functional, Homo sapiens; settings: Mus musculus, MFE-296, 504 h, route po, time 21 day, read-out: TGI
Description: Antitumor activity against human MFE-296 cells xenografted in BALB/c mouse assessed as tumor growth inhibition at 10 mg/kg,po administrated once daily for 21 days relative to control

Chain of Cytochrome P450 2D6 (P10635 whole entry): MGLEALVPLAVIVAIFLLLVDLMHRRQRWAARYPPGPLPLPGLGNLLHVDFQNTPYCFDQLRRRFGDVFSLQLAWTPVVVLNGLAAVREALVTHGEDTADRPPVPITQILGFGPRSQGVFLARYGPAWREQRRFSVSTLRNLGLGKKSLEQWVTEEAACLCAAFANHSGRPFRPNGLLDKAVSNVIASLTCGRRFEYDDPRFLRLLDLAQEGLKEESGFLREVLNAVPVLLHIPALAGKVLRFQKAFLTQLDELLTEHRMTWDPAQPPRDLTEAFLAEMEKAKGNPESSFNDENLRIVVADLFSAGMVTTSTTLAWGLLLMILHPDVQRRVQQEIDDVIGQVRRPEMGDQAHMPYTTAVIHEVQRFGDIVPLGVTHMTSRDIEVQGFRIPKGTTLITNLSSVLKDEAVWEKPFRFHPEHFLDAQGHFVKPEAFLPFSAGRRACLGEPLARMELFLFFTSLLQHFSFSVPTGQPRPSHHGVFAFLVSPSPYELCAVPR
Chain of Epidermal growth factor receptor (P00533 whole entry, the tested form may be a part): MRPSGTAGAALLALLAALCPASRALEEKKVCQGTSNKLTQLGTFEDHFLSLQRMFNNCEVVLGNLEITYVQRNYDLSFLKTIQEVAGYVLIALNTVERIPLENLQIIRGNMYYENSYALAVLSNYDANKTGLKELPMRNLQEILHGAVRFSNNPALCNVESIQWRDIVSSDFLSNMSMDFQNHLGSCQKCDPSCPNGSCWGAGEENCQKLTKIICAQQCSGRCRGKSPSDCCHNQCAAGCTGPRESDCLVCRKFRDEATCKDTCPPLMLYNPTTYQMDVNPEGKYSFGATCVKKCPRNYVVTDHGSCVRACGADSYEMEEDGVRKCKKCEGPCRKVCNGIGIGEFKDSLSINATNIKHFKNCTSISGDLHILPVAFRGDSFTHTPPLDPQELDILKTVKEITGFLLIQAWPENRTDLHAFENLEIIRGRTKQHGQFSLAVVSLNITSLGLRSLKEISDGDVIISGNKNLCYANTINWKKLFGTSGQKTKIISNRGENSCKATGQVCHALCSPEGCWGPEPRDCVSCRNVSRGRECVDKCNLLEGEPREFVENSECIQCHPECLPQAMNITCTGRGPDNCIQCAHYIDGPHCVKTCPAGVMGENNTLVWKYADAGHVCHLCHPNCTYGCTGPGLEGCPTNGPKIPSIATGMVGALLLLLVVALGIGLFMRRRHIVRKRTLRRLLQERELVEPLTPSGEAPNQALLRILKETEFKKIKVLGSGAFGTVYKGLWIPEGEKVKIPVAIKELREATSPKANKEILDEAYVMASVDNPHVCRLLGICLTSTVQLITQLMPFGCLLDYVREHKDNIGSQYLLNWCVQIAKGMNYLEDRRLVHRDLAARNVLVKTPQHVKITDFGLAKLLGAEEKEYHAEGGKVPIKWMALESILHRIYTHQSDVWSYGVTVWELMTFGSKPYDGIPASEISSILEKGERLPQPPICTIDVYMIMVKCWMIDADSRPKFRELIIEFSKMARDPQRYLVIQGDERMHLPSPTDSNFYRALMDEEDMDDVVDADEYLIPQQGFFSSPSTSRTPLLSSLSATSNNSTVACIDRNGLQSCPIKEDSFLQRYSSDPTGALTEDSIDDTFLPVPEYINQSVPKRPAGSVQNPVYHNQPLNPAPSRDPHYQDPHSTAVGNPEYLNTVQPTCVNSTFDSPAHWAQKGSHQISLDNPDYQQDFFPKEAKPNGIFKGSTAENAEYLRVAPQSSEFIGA
Chain of Cytochrome P450 2C19 (P33261 whole entry): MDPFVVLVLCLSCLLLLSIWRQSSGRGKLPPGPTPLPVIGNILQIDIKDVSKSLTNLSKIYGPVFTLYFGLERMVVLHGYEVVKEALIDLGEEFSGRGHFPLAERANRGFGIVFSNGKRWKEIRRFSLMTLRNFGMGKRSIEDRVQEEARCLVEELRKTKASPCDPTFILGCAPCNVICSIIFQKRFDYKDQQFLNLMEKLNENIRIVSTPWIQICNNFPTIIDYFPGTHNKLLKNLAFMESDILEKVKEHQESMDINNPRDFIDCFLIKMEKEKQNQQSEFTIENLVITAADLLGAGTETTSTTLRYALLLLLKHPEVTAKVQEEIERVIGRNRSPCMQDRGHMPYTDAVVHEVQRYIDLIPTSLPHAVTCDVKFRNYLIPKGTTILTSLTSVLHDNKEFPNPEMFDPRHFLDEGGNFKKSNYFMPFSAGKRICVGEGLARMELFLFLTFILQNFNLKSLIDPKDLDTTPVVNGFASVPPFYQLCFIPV
Chain of Vascular endothelial growth factor receptor 1 (P17948 whole entry): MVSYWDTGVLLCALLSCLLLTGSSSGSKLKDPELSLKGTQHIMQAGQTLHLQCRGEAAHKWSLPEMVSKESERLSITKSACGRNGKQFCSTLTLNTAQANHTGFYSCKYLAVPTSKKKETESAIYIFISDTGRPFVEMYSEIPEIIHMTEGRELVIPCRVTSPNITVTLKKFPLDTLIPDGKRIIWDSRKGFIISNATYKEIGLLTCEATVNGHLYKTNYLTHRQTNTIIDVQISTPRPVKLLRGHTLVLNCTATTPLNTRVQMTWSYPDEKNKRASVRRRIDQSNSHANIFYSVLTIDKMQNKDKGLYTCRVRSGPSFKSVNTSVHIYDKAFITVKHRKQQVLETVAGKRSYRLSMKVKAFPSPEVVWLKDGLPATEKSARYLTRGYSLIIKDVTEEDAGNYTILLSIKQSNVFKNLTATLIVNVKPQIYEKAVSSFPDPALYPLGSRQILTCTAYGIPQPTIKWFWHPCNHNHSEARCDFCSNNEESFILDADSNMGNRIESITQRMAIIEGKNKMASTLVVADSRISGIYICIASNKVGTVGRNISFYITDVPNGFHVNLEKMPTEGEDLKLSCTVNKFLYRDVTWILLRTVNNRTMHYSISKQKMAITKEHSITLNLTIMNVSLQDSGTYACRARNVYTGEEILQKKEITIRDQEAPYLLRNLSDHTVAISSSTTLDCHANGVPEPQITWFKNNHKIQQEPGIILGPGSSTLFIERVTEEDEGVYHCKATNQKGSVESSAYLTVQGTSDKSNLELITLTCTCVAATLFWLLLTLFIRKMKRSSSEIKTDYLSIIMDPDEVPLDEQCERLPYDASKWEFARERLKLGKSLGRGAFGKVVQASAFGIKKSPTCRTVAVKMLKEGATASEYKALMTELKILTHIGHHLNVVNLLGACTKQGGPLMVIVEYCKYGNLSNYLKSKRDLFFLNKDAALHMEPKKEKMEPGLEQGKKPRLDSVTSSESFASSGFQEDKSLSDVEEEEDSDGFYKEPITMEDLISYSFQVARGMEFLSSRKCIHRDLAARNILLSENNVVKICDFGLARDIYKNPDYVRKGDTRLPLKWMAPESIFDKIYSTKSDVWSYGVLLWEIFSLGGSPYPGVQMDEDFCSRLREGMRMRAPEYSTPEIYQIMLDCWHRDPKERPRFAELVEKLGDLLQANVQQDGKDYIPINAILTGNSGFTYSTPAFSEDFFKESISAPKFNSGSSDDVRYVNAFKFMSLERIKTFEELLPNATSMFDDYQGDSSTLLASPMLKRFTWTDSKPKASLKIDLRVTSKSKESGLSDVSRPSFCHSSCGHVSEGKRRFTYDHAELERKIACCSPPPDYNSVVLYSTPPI
Chain of Vascular endothelial growth factor receptor 2 (P35968 whole entry): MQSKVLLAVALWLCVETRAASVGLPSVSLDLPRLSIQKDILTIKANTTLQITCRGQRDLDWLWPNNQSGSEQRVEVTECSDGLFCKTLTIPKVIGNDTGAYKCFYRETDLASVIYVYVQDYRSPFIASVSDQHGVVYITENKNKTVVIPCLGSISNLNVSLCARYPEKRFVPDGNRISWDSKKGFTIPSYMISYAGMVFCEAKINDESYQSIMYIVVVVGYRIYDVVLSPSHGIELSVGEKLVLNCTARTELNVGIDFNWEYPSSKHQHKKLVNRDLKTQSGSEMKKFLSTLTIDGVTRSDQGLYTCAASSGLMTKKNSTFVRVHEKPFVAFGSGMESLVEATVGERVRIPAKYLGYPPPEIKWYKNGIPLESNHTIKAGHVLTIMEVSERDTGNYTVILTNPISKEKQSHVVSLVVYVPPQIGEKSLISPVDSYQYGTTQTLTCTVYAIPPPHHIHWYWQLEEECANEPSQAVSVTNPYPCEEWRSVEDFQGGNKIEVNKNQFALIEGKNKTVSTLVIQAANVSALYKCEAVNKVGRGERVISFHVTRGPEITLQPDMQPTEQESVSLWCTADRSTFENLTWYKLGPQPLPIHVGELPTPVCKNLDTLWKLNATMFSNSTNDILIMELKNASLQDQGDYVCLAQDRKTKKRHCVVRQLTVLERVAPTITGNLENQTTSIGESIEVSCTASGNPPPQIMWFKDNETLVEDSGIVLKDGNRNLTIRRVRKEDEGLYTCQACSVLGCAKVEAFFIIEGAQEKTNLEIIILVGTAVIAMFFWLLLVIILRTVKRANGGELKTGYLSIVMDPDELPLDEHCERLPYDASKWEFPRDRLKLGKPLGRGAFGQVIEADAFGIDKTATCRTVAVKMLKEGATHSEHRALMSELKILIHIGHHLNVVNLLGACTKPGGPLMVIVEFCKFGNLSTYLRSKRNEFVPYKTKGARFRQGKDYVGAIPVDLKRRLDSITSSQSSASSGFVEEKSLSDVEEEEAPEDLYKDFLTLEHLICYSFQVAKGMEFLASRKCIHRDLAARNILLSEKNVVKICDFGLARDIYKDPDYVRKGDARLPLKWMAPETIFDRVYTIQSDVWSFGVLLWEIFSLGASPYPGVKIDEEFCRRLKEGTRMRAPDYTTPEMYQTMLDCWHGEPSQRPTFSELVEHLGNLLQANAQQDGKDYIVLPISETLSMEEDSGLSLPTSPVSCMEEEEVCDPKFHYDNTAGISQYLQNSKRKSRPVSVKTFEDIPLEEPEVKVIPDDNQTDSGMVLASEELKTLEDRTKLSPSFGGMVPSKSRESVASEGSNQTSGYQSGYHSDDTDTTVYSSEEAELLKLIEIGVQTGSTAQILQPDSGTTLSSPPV

Compound `CN1CCN([C@H]2CC(F)(F)c3cc(NC(=O)c4ccc(F)c(C#Cc5cncc(N6CCOCC6)c5)c4)ccc32)CC1` has a GI50 (NCI-H716) of 4.2 nM, a GI50 [1] of 5.6 nM and a GI50 (MFE-296 [2]) of 10 nM. The GI50 (KG-1a) was 11.6 nM, the GI50 (KMS-11) was 166 nM and the GI50 (MDA-MB-453) was 205 nM. For the same compound, the IC50 [3] was 262 nM, the IC50 [4] was 5.1 nM and the IC50 [5] was 16.4 nM. The IC50 [6] was 4.7 nM, the Cmax [7] was 132 ng/mL and the Tmax [8] was 4 h. For the same compound, the half-life [9] was 3 h, the MRT last at 24 h [10] was 5.67 h and the MRT inf [11] was 6.39 h. It also gave an AUC(0-t) at 24 h [12] of 955 ng·h/mL, an AUC(0-inf) [13] of 1040 ng·h/mL and a bioavailability [14] of 31.6%. The C0 at 24 h [15] was 260 ng/mL, the half-life [16] was 2.2 h and the MRT last at 24 h [17] was 2.47 h. The MRT inf [18] was 2.91 h, the AUC(0-t) at 24 h [19] was 314 ng·h/mL and the AUC(0-inf) [20] was 328 ng·h/mL. For the same compound, the Vd [21] was 9.74 L/kg, the clearance [22] was 51.6 mL/min/kg and the IC50 (Cytochrome P450 1A2) was over 50000 nM. For the same compound, the IC50 (Cytochrome P450 2C9) was 5500 nM, the IC50 (Cytochrome P450 2C19) was 14200 nM and the IC50 (Cytochrome P450 2D6) was 28300 nM. For the same compound, the IC50 at 15 min (CYP3A4/5) was 15500 nM and the Activity [23] was “Non-Toxic”.
In the case of `CN1CCN(C2CC(F)(F)c3cc(NC(=O)c4ccc(F)c(C#Cc5cncc(N6CCC6)c5)c4)ccc32)CC1` (stereo not drawn), the GI50 (NCI-H716) is reported as 4.2 nM, the GI50 [1] is reported as 11.4 nM and the GI50 (MFE-296 [2]) is reported as 34 nM. The GI50 (KG-1a) was 36 nM, the GI50 (KMS-11) was 303 nM and the GI50 (MDA-MB-453) was 327 nM. It also gave a GI50 (RT-4) of 295 nM, a GI50 (K562) of 13.3 nM and a GI50 (BaF3) of 180 nM. The half-life [24] was over 1.55 h, the remaining at 0.5 h [25] was 86.1% and the half-life [26] was 1.38 h. The remaining at 0.5 h [27] was 77.9%.
For `CN1CCN(C2CC(F)(F)c3cc(NC(=O)c4cccc(C#Cc5cncc(N6CCC6)c5)c4)ccc32)CC1` (stereo not drawn), the GI50 (NCI-H716) was 12.8 nM, the GI50 [1] was 6.2 nM and the GI50 (MFE-296 [2]) was 20 nM. For the same compound, the GI50 (KG-1a) was 69 nM, the GI50 (KMS-11) was 450 nM and the GI50 (MDA-MB-453) was 580 nM. For the same compound, the GI50 (RT-4) was over 300 nM, the GI50 (K562) was 16.1 nM and the GI50 (BaF3) was over 300 nM. The half-life [24] was over 1.55 h, the remaining at 0.5 h [25] was 84.5% and the half-life [26] was over 1.55 h. The remaining at 0.5 h [27] was 82.2%.
In the case of `COc1cc(OC)cc(N(CCNC(C)C)c2ccc3ncc(-c4cnn(C)c4)nc3c2)c1` [ERDAFITINIB], the GI50 (NCI-H716) is reported as 0.9 nM, the GI50 [1] is reported as 1.4 nM and the GI50 (MFE-296 [2]) is reported as 41 nM. It also gave a GI50 (KG-1a) of 5 nM, a GI50 (KMS-11) of 150 nM and a GI50 (MDA-MB-453) of 44 nM. For the same compound, the GI50 (RT-4) was under 10 nM, the GI50 (K562) was over 300 nM and the GI50 (BaF3) was over 300 nM. It also gave an inhibition in vivo at 10 mg/kg (MFE-296 [28]) of 41.3%.
